ChEMBL document CHEMBL5236603, “Discovery of mobocertinib, a potent, oral inhibitor of EGFR exon 20 insertion mutations in non-small cell lung cancer” (Bioorg Med Chem Lett, 2023)

Assay: Inhibition of mouse EGFR common activating deletion mutant stably expressed in mouse BaF3 cells assessed as cell viability incubated for 3 days by Cell Titer-Glo assay
Format: cell-based
Conditions: BaF3, 72 h

C=CC(=O)Nc1cc(Nc2ncc(C(=O)OC(C)C)c(-c3cn(C)c4ccccc34)n2)c(OC)cc1N(C)CCN(C)C [MOBOCERTINIB]
IC50: 2.7 nM
